The source of these data is PubChem BioAssay (NCI).

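Following 48 hours of exposure in 96-well plates, responses at five concentrations were used to interpolate endpoints linearly. Abbreviation: GI50, concentration required for 50% inhibition of growth. TGI denotes the concentration required for complete inhibition of growth.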

Some test systems named below: CAKI-1 renal; COLO 205 colon; EKVX NSCLC; MDA-MB-231 breast; MDA-MB-435; MOLT-4 leukemia; OVCAR-4 ovarian; RPMI-8226 leukemia; SNB-19 CNS; T-47D breast.
What all share (assay): DTP human tumour cell line panel, 48 h

Broadly, the GI50 is the concentration at which growth is held to half of that of the control. Broadly, the TGI is the concentration at which net growth stops. Turning to `Cc1cc(C)c(O)c(CNCCCCCCNCc2cc(C)cc(C)c2O)c1`, the GI50 is 1.97 µM with CAKI-1 renal; 1670 nM in the experiment with COLO 205 colon; 1.74 µM with EKVX NSCLC; 1.38 µM in the experiment with MDA-MB-231 breast; 1.43 µM in the experiment with MDA-MB-435; 1720 nM in the experiment on MOLT-4 leukemia. The GI50 was 1.51 µM in the experiment on OVCAR-4 ovarian, 1.94 µM in the experiment with RPMI-8226 leukemia, 1.98 µM in the experiment on SNB-19 CNS and 1500 nM in the experiment with T-47D breast. For the same compound, the TGI with CAKI-1 renal was determined as 4.49 µM; with COLO 205 colon, 3.32 µM; in the experiment with EKVX NSCLC, 3.65 µM; with MDA-MB-231 breast it was 2.9 µM; with MDA-MB-435, 2.81 µM; in the experiment with MOLT-4 leukemia, 3.9 µM. The TGI with OVCAR-4 ovarian came out at 3.75 µM; in the experiment with RPMI-8226 leukemia, 4.96 µM; in the experiment on SNB-19 CNS, 4.59 µM; with T-47D breast it was 3.36 µM.

Regarding `C=C1C[C@@H]2C/C=C/C(=O)C/C(C)=C\C=C\C(=O)O[C@H](C=O)C/C(C)=C/[C@H](C1)O2`, the GI50 in the experiment with CAKI-1 renal was 4.71 µM; with COLO 205 colon it was 885 nM; in the experiment on EKVX NSCLC, 3.68 µM; in the experiment with MDA-MB-231 breast, 3.69 µM; in the experiment on MDA-MB-435, 0.316 µM; in the experiment on MOLT-4 leukemia it was 2720 nM. In addition, the GI50 in the experiment with OVCAR-4 ovarian was 4.65 µM; in the experiment with RPMI-8226 leukemia, 0.295 µM; in the experiment with SNB-19 CNS, 4.34 µM; with T-47D breast, 1420 nM. Further, the TGI was 26 µM in the experiment on CAKI-1 renal; 17.7 µM with COLO 205 colon; 21.2 µM in the experiment on EKVX NSCLC; 13.1 µM in the experiment on MDA-MB-231 breast; more than 100 µM with MDA-MB-435; 13.7 µM with MOLT-4 leukemia. Moreover, the TGI in the experiment with OVCAR-4 ovarian worked out at 70 µM; in the experiment on RPMI-8226 leukemia it was 3.29 µM; in the experiment on SNB-19 CNS, 24.8 µM; with T-47D breast, 54.3 µM.

In the case of `C[C@@H]1O[C@@H](O[C@@H]2[C@@H](O)[C@H](OCCc3ccc(O)c(O)c3)O[C@H](COC(=O)/C=C/c3ccc(O)c(O)c3)[C@H]2O)[C@H](O)[C@H](O)[C@H]1O`, the GI50 with CAKI-1 renal was 98.3 µM; in the experiment on COLO 205 colon, more than 100000 nM; in the experiment with EKVX NSCLC, 36.3 µM; in the experiment with MDA-MB-231 breast, more than 100 µM; with MDA-MB-435, 19.9 µM; with MOLT-4 leukemia, more than 100000 nM. In addition, the GI50 with OVCAR-4 ovarian is more than 100 µM; in the experiment on RPMI-8226 leukemia, 13.7 µM; in the experiment on SNB-19 CNS it was more than 100 µM; with T-47D breast it was more than 100000 nM. The concentration for total growth inhibition (TGI) was more than 100 µM in the experiment on CAKI-1 renal; more than 100 µM with COLO 205 colon; more than 100 µM with EKVX NSCLC; more than 100 µM in the experiment with MDA-MB-231 breast; 40.1 µM in the experiment with MDA-MB-435; more than 100 µM in the experiment with MOLT-4 leukemia. Further, the TGI with OVCAR-4 ovarian is more than 100 µM; with RPMI-8226 leukemia, 43.4 µM; in the experiment with SNB-19 CNS, more than 100 µM; in the experiment with T-47D breast it was more than 100 µM.

For the compound `CCN1C(=O)N(CC)C2C1NN=c1s/c(=C3\C(=O)N(CC(C)C)c4ccccc43)c(=O)n12` (stereo not given), the GI50 in the experiment with CAKI-1 renal is 0.522 µM; in the experiment on COLO 205 colon, 401 nM; in the experiment on EKVX NSCLC, 1.56 µM; with MDA-MB-231 breast it was 2.05 µM; in the experiment with MDA-MB-435, 0.224 µM; in the experiment on MOLT-4 leukemia, 974 nM. For the same compound, the GI50 in the experiment with OVCAR-4 ovarian was 1.23 µM; with RPMI-8226 leukemia, 1.42 µM; with SNB-19 CNS, 1.89 µM; with T-47D breast, 311 nM. For the same compound, the TGI is more than 100 µM in the experiment with CAKI-1 renal; 2.32 µM with COLO 205 colon; more than 100 µM with EKVX NSCLC; more than 30.6 µM in the experiment with MDA-MB-231 breast; 0.521 µM in the experiment with MDA-MB-435; more than 100 µM in the experiment with MOLT-4 leukemia. Further, the concentration for total growth inhibition (TGI) is more than 100 µM with OVCAR-4 ovarian, more than 100 µM in the experiment on RPMI-8226 leukemia, 39.2 µM with SNB-19 CNS and more than 100 µM with T-47D breast.

For `CN(C)CCCN=C(N)N`, the TGI in the experiment on CAKI-1 renal, in the experiment with COLO 205 colon, with EKVX NSCLC, with MDA-MB-231 breast, with MDA-MB-435 and in the experiment with MOLT-4 leukemia was more than 100 µM throughout. The concentration for total growth inhibition (TGI) in the experiment on OVCAR-4 ovarian, in the experiment on RPMI-8226 leukemia, in the experiment with SNB-19 CNS and with T-47D breast was more than 100 µM each time.

For the compound `CC1(C)COCN1COC1CCCCC1`, the TGI in the experiment on CAKI-1 renal was more than 100 µM; with COLO 205 colon it was more than 100 µM; in the experiment with EKVX NSCLC, more than 100 µM; with MDA-MB-231 breast, more than 100 µM; with MDA-MB-435 it was more than 100 µM; with MOLT-4 leukemia, 83.9 µM. The TGI in the experiment with OVCAR-4 ovarian, with RPMI-8226 leukemia, in the experiment on SNB-19 CNS and in the experiment on T-47D breast was more than 100 µM in each case.

`N#CC1=C(N)NC(=S)NC12Nc1ccccc1O2` (stereo not given): the GI50 is 39.1 µM in the experiment on CAKI-1 renal; 28100 nM in the experiment with COLO 205 colon; 62.3 µM with EKVX NSCLC; 19.3 µM with MDA-MB-231 breast; 16.8 µM in the experiment with MDA-MB-435; 3720 nM in the experiment on MOLT-4 leukemia. The GI50 with OVCAR-4 ovarian was 52 µM; in the experiment with RPMI-8226 leukemia, 21.9 µM; in the experiment with SNB-19 CNS it was 23.9 µM; in the experiment on T-47D breast, 41500 nM. For the same compound, the TGI was more than 100 µM with CAKI-1 renal; more than 100 µM with COLO 205 colon; more than 100 µM in the experiment on EKVX NSCLC; 76.7 µM with MDA-MB-231 breast; more than 100 µM in the experiment on MDA-MB-435; more than 100 µM with MOLT-4 leukemia. In addition, the TGI is more than 100 µM in the experiment on OVCAR-4 ovarian, 62.7 µM in the experiment with RPMI-8226 leukemia, more than 100 µM with SNB-19 CNS and more than 100 µM in the experiment with T-47D breast.

As for `COC(=O)COc1ccc(/C=C2\N=C(c3ccccc3)N(c3cc(C(F)(F)F)ccc3Cl)C2=O)cc1`, the GI50 was more than 100 µM with CAKI-1 renal; 54400 nM in the experiment on COLO 205 colon; more than 100 µM with EKVX NSCLC; more than 100 µM in the experiment on MDA-MB-231 breast; 50.3 µM in the experiment on MDA-MB-435; 28600 nM with MOLT-4 leukemia. Besides, the GI50 in the experiment on OVCAR-4 ovarian was 54.8 µM; with RPMI-8226 leukemia, 19 µM; in the experiment on SNB-19 CNS, 83.8 µM; in the experiment on T-47D breast, 82900 nM. In addition, the TGI was more than 100 µM with CAKI-1 renal; more than 100 µM with COLO 205 colon; more than 100 µM in the experiment on EKVX NSCLC; more than 100 µM in the experiment with MDA-MB-231 breast; more than 100 µM with MDA-MB-435; 69.1 µM with MOLT-4 leukemia. Also, the TGI in the experiment with OVCAR-4 ovarian is more than 100 µM; in the experiment on RPMI-8226 leukemia, 46.1 µM; with SNB-19 CNS, more than 100 µM; in the experiment on T-47D breast it was more than 100 µM.
